Experimental data taken from US4199579A, “Carbamates of 2-haloergolines and 2-haloergolenes and process for the preparation thereof” (priority 1975, dated 1980).
In brackets after ≈: the same amount, converted by molar mass. Read-outs that look alike come from different tables or passages of the source.

What was measured:
[1] = system: asthma; settings: pharmacological aspect; cited from earlier work
[2] = system: asthma; assay: Anti-asthmatic activity (Goose, Immunology, 16, 749, 1969); format: in vivo
From the text: (§1) Coming now to examining the anti-asthmatic pharmaceutical compositions it has been ascertained that the compound described as D-2-bromo-6-methyl-8beta-(morpholinocarbolynoxymethyl)-ergoline, corresponding to the formula (4) is endowed with quite special [drawing 81] which render it particularly recommendable for the therapy of asthma. The compound of the formula (4) has the empirical formula C21 H26 N3 O3 Br and a mol. wt. of 448.38. It gives, with mineral and organic acid of nontoxic and pharmacologically acceptable nature, a number of salt. These are soluble in water as well as in the physiological solutions. Such are for example the maleate C25 H30 N3 O7 Br, m.p. 213° C.-216° C., or the methanesulfonate C22 H30 N3 O6 BrS, m.p. 265° C.-266° C. and can be prepared according to the conventional methods by treating the compound (4) with the equivalent quantities of the acid in an aqueous medium or in appropriate organic solvents and their mixtures such as the alcohols, the ethers, the lower aliphatic ketones and others, taken individually or in appropriate mixtures with each other as will be detailed in the Examples hereinafter. The pharmacological activity of the compound of formula (4) is unfolded in appropriate assays, carried out on the test animals and is especially conspicuous in the following test runs:
Goose, Sodium ED100 5 mg/kg intrav.

[3] = system: alpha-adrenergic receptors; assay: Antiadrenalic (antiadrenergic) activity in vitro (a): antagonism of the spasmogenic effect of adrenaline on the seminal vesicle; format: cell-based, guinea pig
From the text: More particularly the novel compounds display a vasodilatory activity on the peripheral circulatory system, an hypotensive activity and a spasmolytic effect on the gastrointestinal smooth muscles or a blocking activity towards the alpha-adrenergic receptors, both in "vitro" and in "vivo".
(a) J. Brugger, Helv. Physiol. Pharmacol. Acta 3, 117 (1945)
The product is antagonizing the spasmogenic effect of the adrenaline on the seminal vesicle of guinea pig at concentrations of between 0.1 and 10 pg/ml, as well as the vaso- constricting effect of the noradrenaline on the isolated and perfused caudal arteria of rat, at dosages of between 1 and 10 μg total. Furthermore it antagonizes the contracturing effect of adrenaline and noradrenaline on the "vas deferens" of guinea pig and rat, at concentrations of 0.1 to 10 ng/ml.

[4] = system: adrenergic activity; assay: Adrenergic activity of compound (4) in vitro; format: cell-based
From the text: All of these activities of an accessorial nature which unfold themselves at dosages which are considerably higher than those which cause the antiasthmatic effect, should be regarded as favorable factors in the sense that they improve the pharmacological pattern of the product, so that a possible therapeutic use of the product for patients suffering from asthma, […], can be forecast.

[5] = system: isolated ileum of guinea pig; assay: AntiBaCl2 activity in vitro (c): antagonism of the spasmogenic action of barium chloride on the isolated ileum; format: cell-based; settings: Cavia porcellus, read-out: AntiBaCl2 (c) vitro EC50
Description: (c) Magnus, Pflugers Arch.Ges.Physiol. 102, 123 (1904)
The substance antagonizes the spasmogenic action of the barium chloride on the isolated ileum of guinea pig at dosages of between 1 and 5 μg/ml. […] On the isolated caudal arteria of rat, the compound II inhibits the vaso-constricting effect as caused by the perfusion with hyperpotassium Ringer's solution.

[6] = system: alpha-adrenergic receptors; assay: Antiadrenalic activity in vivo (b): protection of rats from the lethal effect of adrenaline; design: species or system rat; settings: e.v.; Table 2
[7] = system: Antidepressant activity; assay: Antidepressant activity; format: in vivo
From the text: as §1, with “runs: […]” for “runs:”

[8] = Acute toxicity in mice; format: in vivo, mouse; settings: mouse, in vivo, mouse
From the text: |Toxicity LD50 mice orally

[9] = system: Myorelaxing activity; assay: Myorelaxing activity; format: in vivo
From the text: as §1, with “runs: […]” for “runs:”

SMILES	route by which the anti-asthmatic activity is manifested [1]	ED100 ([2]; iv, intrav.) [mg/kg]	Antiadrenalic activity (a) vitro EC50 [3] [µg/mL]	dosage level of anti-asthmatic action compared with sodium chromoglycate ([2]; by the oral route)	activity against asthmatic seizures in words ([2]; in vivo)	ED100 ([2]; po, orally) [mg/kg]	adrenergic activity in vitro [4]	EC50 [5] [µg/mL]	Antiadrenalic activity (b) vivo ED50 [6] [mg/kg]	ED100 ([7]; po, orally) [mg/kg]	antidepressant activity in words ([7]; versus imipramine)	LD50 ([8]; iv, e.v., Table 2, read-out: DL50 e.v. in the mouse) [mg/kg]	LD50 ([8]; iv, mice, intrav., compound (4), read-out: Toxicity LD50 mice intrav.) [mg/kg]	LD50 ([8]; po, mice, orally, compound (4), read-out: Toxicity LD50 mice orally) [mg/kg]	selectivity ratio ([8]; margin of safety, read-out: multiple of the therapeutic dosage beyond which toxic effects become apparent)	ED100 ([9]; route not given) [mg/kg]	myorelaxing activity in words ([9]; versus phenobarbital)
O=C(O)c1cc(=O)c2c(OCC(O)COc3cccc4oc(C(=O)O)cc(=O)c34)cccc2o1 [Sodium chromoglycate, reference compound]	manifested only by the parentheral administration (intravenously), and, in man by inhalation of the dispersed powder	5															
CN1C[C@H](COC(=O)N2CCOCC2)C[C@@H]2c3cccc4[nH]c(Br)c(c34)C[C@H]21 [Example 16, D-2-bromo-6-methyl-8beta-(morpholinocarbonyloxymethyl)-ergoline]			0.0058	considerably lower dosage levels	both selectivity and a powerful activity against asthmatic seizures	0.25	powerful adrenergic activity	7.5 (≈ 16.7 µM)	0.0419	5	considerable antidepressant activity which can be compared to that of imipramine	20.5	18 to 22	180	> 1000	100	remarkable myorelaxing activity which is comparable to that of phenobarbital
